For 27 compounds, IC50 results are on record in patent US12378224B2 (Dong-A Socio Holdings Co., Ltd., priority 2016, dated 2025).

The term IC50 denotes the concentration that inhibits the measured activity by half.

Sequence of human c-MER catalytic domain (Q12866 587-858): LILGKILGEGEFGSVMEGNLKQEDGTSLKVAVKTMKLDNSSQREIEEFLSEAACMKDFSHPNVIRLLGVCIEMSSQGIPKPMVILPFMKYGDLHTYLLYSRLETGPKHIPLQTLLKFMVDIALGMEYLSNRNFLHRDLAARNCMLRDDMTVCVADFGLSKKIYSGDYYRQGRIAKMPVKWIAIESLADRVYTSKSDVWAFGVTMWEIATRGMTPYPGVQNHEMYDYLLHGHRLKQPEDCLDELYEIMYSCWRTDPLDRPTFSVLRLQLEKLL

This assay deals with human c-MER catalytic domain (Homo sapiens (Human), UniProt Q12866). Nature of the assay: TR-FRET Kinase Activity Biochemical Assay (LanthaScreen). Conditions: 10 uM ATP, 1 hour, kinase not given. An excerpt:
For the SAR (structure-activity relationship) and compound screening, LanthaScreen™ TR-FRET (Time-Resolved fluorescence energy transfer) assay was employed using the phospho-tyrosine specific Terbium (Tb)-labelded antibody with a fluorescein labeled poly-GT (glutamate-tyrosine) as a substrate. Upon excitation at 340 nm by UV, the energy from Tb donor of the antibody is transferred to the fluorescein of the phosphorylated poly GT substrate, and fluorescein emits light at 520 nm. The ratio between the intensity of […] was used to quantify the level of kinase activity. The recombinant proteins of human c-MER and AXL catalytic domains, Fluorescein-labeled poly-GT substrate, Tb-labeled anti-phosphorylated tyrosine antibodies, the kinase assay buffer, and 0.5M EDTA solution were purchased (Life technologies, USA). The TR-FRET assays were carried out in the white low volume 384-well plate (Corning, USA). […] 10 mM EDTA was added to terminate the enzyme reaction, and the level of phosphorylation of poly-GT substrate was determined following 30 min incubation with 2 nM Tb-labeled antibody. The fluorescence intensity was measured with Envision™ plate reader (PerkinElmer, USA).
Turning to `Cc1ccc(-c2ccc(C(=O)N3CC[C@@H](NC(=O)c4cc(-c5cnn(C)c5)cnc4N)C3)cc2C)s1` [Example 536, (R)-2-amino-5-(1-methyl-1H-pyrazol-4-yl)-N-(1-(3-methyl-4-(5-methylthiophen-2-yl)benzoyl)pyrrolidin-3-yl)nicotinamide], the IC50 lay in the range of 0.01 to 0.1 µM.

`Cn1cc(-c2cnc(N)c(C(=O)N[C@@H]3CCN(Cc4ccccc4-c4ccc(CO)cc4)C3)c2)cn1` [Example 248, (R)-2-amino-N-(1-((4′-(hydroxymethyl)-[1,1′-biphenyl]-2-yl)methyl)pyrrolidin-3-yl)-5-(1-methyl-1H-pyrazol-4-yl)nicotinamide] registered a 50% inhibitory concentration (IC50) of 0.1 to 1 µM.

The compound `Cn1cc(-c2cnc(N)c(C(=O)N[C@H]3CCN(C(=O)c4ccc(-c5ccccc5)cc4)C3)c2)cn1` [Example 346, (S)—N-(1-([1,1′-biphenyl]-4-carbonyl)pyrrolidin-3-yl)-2-amino-5-(1-methyl-1H-pyrazol-4-yl)nicotinamide] displayed a half-maximal inhibitory concentration (IC50) above 1 µM.

The compound `Cn1cc(-c2cnc(N)c(C(=O)N[C@@H]3CCN(C(=O)Oc4ccc5ccc(O)cc5c4)C3)c2)cn1` [Example 95, 7-hydroxynaphthalen-2-yl (R)-3-(2-amino-5-(1-methyl-1H-pyrazol-4-yl)nicotinamido)pyrrolidine-1-carboxylate] gave an IC50 of 0.1 to 1 µM.

Turning to `Cc1nn(C)c(C(F)(F)F)c1-c1ccc(C(=O)N2CC[C@@H](NC(=O)c3cc(-c4cnn(C)c4)cnc3N)C2)cc1` [Example 521, (R)-2-amino-N-(1-(4-(1,3-dimethyl-5-(trifluoromethyl)-1H-pyrazol-4-yl)benzoyl)pyrrolidin-3-yl)-5-(1-methyl-1H-pyrazol-4-yl)nicotinamide], the half-maximal inhibitory concentration (IC50) lay in the range of 0.1 to 1 µM.

Compound `Cn1cc(-c2cnc(N)c(C(=O)N[C@@H]3CCN(C(=O)Oc4cccc(-c5cccc(C(=O)NCCC#N)c5)c4)C3)c2)cn1` [Example 277, 3′-((2-cyanoethyl)carbamoyl)-[1,1′-biphenyl]-3-yl (R)-3-(2-amino-5-(1-methyl-1H-pyrazol-4-yl)nicotinamido)pyrrolidine-1-carboxylate] gave a 50% inhibitory concentration (IC50) of 0.1 to 1 µM.

Turning to `COc1ccccc1CN1CC[C@@H](NC(=O)c2cc(-c3cnn(C4CCNCC4)c3)cnc2N)C1` [Example 167, (R)-2-amino-N-(1-(2-methoxybenzyl)pyrrolidin-3-yl)-5-(1-(piperidin-4-yl)-1H-pyrazol-4-yl)nicotinamide], the IC50 was 0.1 to 1 µM.

Regarding `CN(C)CCCOc1ccc(-c2ccc(C(=O)N3CC[C@@H](NC(=O)c4cc(-c5cnn(C)c5)cnc4N)C3)cc2)cc1` [Example 551, (R)-2-amino-N-(1-(4′-(3-(dimethylamino)propoxy)-[1,1′-biphenyl]-4-carbonyl)pyrrolidin-3-yl)-5-(1-methyl-1H-pyrazol-4-yl)nicotinamide], the IC50 lay within 0.01 to 0.1 µM.

Take `CN(C)Cc1ccc(-c2cccc(NC(=O)N3CC[C@@H](NC(=O)c4cc(-c5cnn(C)c5)cnc4N)C3)c2)cc1` [Example 266, (R)-2-amino-N-(1-((4′-((dimethylamino)methyl)-[1,1′-biphenyl]-3-yl)carbamoyl)pyrrolidin-3-yl)-5-(1-methyl-1H-pyrazol-4-yl)nicotinamide]: the half-inhibitory concentration (IC50) was in the range of 0.01 to 0.1 µM.

In turn, `Cn1cc(-c2cnc(N)c(C(=O)N[C@@H]3CCN(CC(=O)c4ccccc4)C3)c2)cn1` [Example 215, (R)-2-amino-5-(1-methyl-1H-pyrazol-4-yl)-N-(1-(2-oxo-2-phenylethyl)pyrrolidin-3-yl)nicotinamide] gave an IC50 above 1 µM.

With `Cn1cc(-c2cnc(N)c(C(=O)N[C@@H]3CCN(C(=O)Oc4cccc(-c5ccc(CN6CCC(N)CC6)cc5)c4)C3)c2)cn1` [Example 317, 4′-((4-aminopiperidin-1-yl)methyl)-[1,1′-biphenyl]-3-yl (R)-3-(2-amino-5-(1-methyl-1H-pyrazol-4-yl)nicotinamido)pyrrolidine-1-carboxylate], the IC50 is 0.01 to 0.1 µM.

For `Cn1cc(-c2cnc(N)c(C(=O)N[C@@H]3CCN(C(=O)c4ccc(-c5ccc(OC6CCNC6)cc5)cc4)C3)c2)cn1` (stereo partly drawn) [Example 532, 2-amino-5-(1-methyl-1H-pyrazol-4-yl)-N-((3R)-1-(4′-(pyrrolidin-3-yloxy)-[1,1′-biphenyl]-4-carbonyl)pyrrolidin-3-yl)nicotinamide], the concentration for half-maximal inhibition (IC50) was 0.1 to 1 µM.

For the compound `CN(C)CCCNc1ncc(-c2cnn(C)c2)cc1C(=O)N[C@@H]1CCN(C(=O)c2ccc(-c3ccc(OCCCN(C)C)cc3)cc2)C1` [Example 848, (R)—N-(1-(4′-(3-(dimethylamino)propoxy)-[1,1′-biphenyl]-4-carbonyl)pyrrolidin-3-yl)-2-((3-(dimethylamino)propyl)amino)-5-(1-methyl-1H-pyrazol-4-yl)nicotinamide], the IC50 fell in the range of 0.1 to 1 µM.

Compound `CN(C)c1ccc(-c2ccc(C(=O)N3CC[C@@H](NC(=O)c4cc(-c5cnn(C)c5)cnc4N)C3)cc2)cc1` [Example 379, (R)-2-amino-N-(1-(4′-(dimethylamino)-[1,1′-biphenyl]-4-carbonyl)pyrrolidin-3-yl)-5-(1-methyl-1H-pyrazol-4-yl)nicotinamide] yielded an IC50 of 0.01 to 0.1 µM.

With `Cn1cc(-c2cnc(N)c(C(=O)N[C@@H]3CCN(C(=O)c4ccc(-c5ccc(C(C)(C)N)cc5)cc4)C3)c2)cn1` [Example 801, (R)-2-amino-N-(1-(4′-(2-aminopropan-2-yl)-[1,1′-biphenyl]-4-carbonyl)pyrrolidin-3-yl)-5-(1-methyl-1H-pyrazol-4-yl)nicotinamide], the IC50 is 0.1 to 1 µM.

Regarding `Cn1cc(-c2cnc3[nH]nc(N[C@@H]4CCN(C(=O)c5ccc(Oc6ccccc6)cc5)C4)c3c2)cn1` [Example 791, (R)-(3-((5-(1-methyl-1H-pyrazol-4-yl)-1H-pyrazolo[3,4-b]pyridin-3-yl)amino)pyrrolidin-1-yl)(4-phenoxyphenyl)methanone], the half-inhibitory concentration (IC50) was 0.1 to 1 µM.

As to “(R,E)-2-amino-5-(1-methyl-1H-pyrazol-4-yl)-N-(1-(4-(3-oxobut-1-en-1-yl)benzoyl)pyrrolidin-3-yl)nicotinamide [Example 681]”, the IC50 is above 1 µM.

On to `COc1ccc(-c2cnc(N)c(C(=O)N[C@@H]3CCN(C(=O)c4ccc(-c5ccccc5)cc4)C3)c2)cc1` [Example 555, (R)—N-(1-([1,1′-biphenyl]-4-carbonyl)pyrrolidin-3-yl)-2-amino-5-(4-methoxyphenyl)nicotinamide], for which the half-maximal inhibitory concentration (IC50) lay within 0.1 to 1 µM.

The compound `Cn1cc(-c2cnc(N)c(C(=O)N[C@@H]3CCN(C(=O)c4ccc(-c5c(F)cccc5F)cc4)C3)c2)cn1` [Example 364, (R)-2-amino-N-(1-(2′,6′-difluoro-[1,1′-biphenyl]-4-carbonyl)pyrrolidin-3-yl)-5-(1-methyl-1H-pyrazol-4-yl)nicotinamide] returned an IC50 of 0.01 to 0.1 µM.

As for `CN1CCN(Cc2ccc(-c3ccc(NC(=O)N4CC[C@@H](NC(=O)c5cc(-c6cnn(C)c6)cnc5N)C4)cc3)cc2)CC1` [Example 273, (R)-2-amino-5-(1-methyl-1H-pyrazol-4-yl)-N-(1-((4′-((4-methylpiperazin-1-yl)methyl)-[1,1′-biphenyl]-4-yl)carbamoyl)pyrrolidin-3-yl)nicotinamide], the half-inhibitory concentration (IC50) is above 1 µM.

In turn, `Cc1csc(C(=O)N2CC[C@@H](NC(=O)c3cc(-c4cnn(C)c4)cnc3N)C2)c1` [Example 409, (R)-2-amino-5-(1-methyl-1H-pyrazol-4-yl)-N-(1-(4-methylthiophene-2-carbonyl)pyrrolidin-3-yl)nicotinamide] came in with an IC50 above 1 µM.

For `Cn1cc(-c2cnc(N)c(C(=O)N[C@@H]3CCN(C(=O)Oc4ccccc4N)C3)c2)cn1` [Example 70, 2-aminophenyl (R)-3-(2-amino-5-(1-methyl-1H-pyrazol-4-yl)nicotinamido)pyrrolidine-1-carboxylate], the 50% inhibitory concentration (IC50) is above 1 µM.

Regarding `Cn1cc(-c2cnc(N)c(C(=O)N[C@@H]3CCN(Cc4cccc(OCc5ccccc5)c4)C3)c2)cn1` [Example 222, (R)-2-amino-N-(1-(3-(benzyloxy)benzyl)pyrrolidin-3-yl)-5-(1-methyl-1H-pyrazol-4-yl)nicotinamide], the concentration for half-maximal inhibition (IC50) was 0.1 to 1 µM.

`Cn1cc(-c2cnc(N)c(C(=O)N[C@@H]3CCN(C(=O)c4ccc(-c5ccc(C#N)s5)cc4)C3)c2)cn1` [Example 537, (R)-2-amino-N-(1-(4-(5-cyanothiophen-2-yl)benzoyl)pyrrolidin-3-yl)-5-(1-methyl-1H-pyrazol-4-yl)nicotinamide]: the IC50 lay within 0.01 to 0.1 µM.

`Cn1cc(-c2cnc(N)c(C(=O)N[C@@H]3CCN(C(=O)c4ccc(-c5cccc(C=O)c5)cc4)C3)c2)cn1` [Example 382, (R)-2-amino-N-(1-(3′-formyl-[1,1′-biphenyl]-4-carbonyl)pyrrolidin-3-yl)-5-(1-methyl-1H-pyrazol-4-yl)nicotinamide] registered an IC50 of 0.01 to 0.1 µM.

Turning to `Cn1cc(-c2cnc(N)c(C(=O)NC3CN(C(=O)c4ccc(-c5ccccc5)cc4)C3)c2)cn1` [Example 344, N-(1-([1,1′-biphenyl]-4-carbonyl)azetidin-3-yl)-2-amino-5-(1-methyl-1H-pyrazol-4-yl)nicotinamide], the IC50 was above 1 µM.

`Cn1cc(-c2cnc(N)c(C(=O)N[C@@H]3CCCN(C(=O)c4ccc(-c5ccccc5)cc4)C3)c2)cn1` [Example 347, (R)—N-(1-([1,1′-biphenyl]-4-carbonyl)piperidin-3-yl)-2-amino-5-(1-methyl-1H-pyrazol-4-yl)nicotinamide]: the half-inhibitory concentration (IC50) is above 1 µM.
